This is an account of results in patent EP1538164A1, “RGD targeting moiety its production and use” (Vectron Therapeutics AG, priority 2003, dated 2005).

Each structure is given as a SMILES string. pIC50: −log10 of the molar value. Positions of bridges follow the written chain, without caps; N, C: chain ends. Residues, ends and D or L forms follow the SMILES beside them.

Assay [1] has as its system HUVEC. The assay can be described thus: Competition of liposome binding by free competitors (HUVEC). More on the design: species or system human. The procedure:
Fig. 1: Binding of carboxyfluorescein-labelled RGD-10 to HUVECs. Thin line - cells without peptide, bold line - cells incubated with CF-labelled RGD-10. Fig. 2: Titration of inhibition of RGD-10 binding by peptides RGD-10 or RGD-4C analyzed by cell ELISA. Fig. 3: Structure of lipopeptides consisting of a peptide ligand with an acetylated Nterminus, the doo spacer linked to a dipalmitoyl-glycero-succinyl-lysine anchor. Fig. 4: A) Binding of RGD10 liposomes to HUVEC or B16.F10. Liposomes containing the RGD10-LP or RGD10-LP3 lipopeptide at a conc. of 0.1 mol% (thin line), 1 mol% (normal line), or 5 mol% (bold line) were analyzed for binding to HUVECs or B16.F10 (marked with 0). Binding of liposomes lacking lipopeptides is indicated as dotted line. B.) Liposomes containing the RGD10LP3 lipopeptide at a conc. of 1 mol% were analyzed for binding to MeWo or A431 cells. Dotted line = cells alone, normal line = liposomes without lipopeptide, bold line, RGD10-LP3 liposomes. Fig. 5: Competition experiments. […] Thin line = cells alone, normal line = plus peptide or 5 doo, bold line = liposomes without competitor. Fig. 6: Cell binding and internalization of RGD-10-LP3 liposomes. Fluorescence microscopy analysis of binding of RGD10-LP3 liposomes or liposomes lacking lipopeptide (untargeted liposomes) to HUVECs at 4°C or 37°C. […] Fig. 7: Pharmacokinetic analysis of liposomes containing 1 mol% LP1, 1 mol% LP3, or 0.1 mol% LP3. Fig. 8: Antitumor effects of LP3-liposomes (Dox-LP3 liposomes) loaded with doxorubicin in comparison to untargeted liposomes (Dox liposomes) or free doxorubicin analyzed in a C26 murine colon carcinoma tumor model.
(§1) Thus, binding to integrin-expressing cells is specifically mediated by the RGD peptide.

The next assay concerns B16.F10. The assay can be described thus: Competition of liposome binding by free competitors (B16.F10). More on the design: species or system murine. The following applies: RGD10 LP1-containing liposomes.
Text: as §1

Assay [2] relates to integrin-expressing cells. Particulars: titration of competition of RGD-10 binding, cell ELISA, Fig. 2. (An ELISA detects its analyte on a solid surface through an enzyme-linked reagent.)
The next assay concerns HDMEC. Description: Peptide binding to HDMEC. More on the design: species or system human. The following applies: compared with RGD-4C oxidized in two steps. From the text:
For further analysis we selected 2C-RGD peptide RGD-10 ([…]). The RGD-10 peptide was synthesized with the sequence […], thus lacking the C-terminal aspartate residue and resulting in a neutral net charge. […] For these experiments RGD-4C was oxidized in a two-step process to obtain disulfide bonds between C1-C4 and C2-C3 described to be essential for high affinity binding (Assa-Munt, et al. (2001) Biochemistry 40: 2373-2378). Compared to RGD-4C, RGD-10 contains only 2 cysteine residues, which facilitates synthesis of oxidized peptides using a one-step oxidation reaction. Furthermore, RGD-10 contains two aromatic residues, which allows spectrophotometrical detection at 280 nm. […] Thus, RGD-10 binds with the same affinity to integrin-expressing cells as RGD-4C, however, is much simpler to produce.

In assay [3] the test system is HUVEC. Description: Direct binding of carboxyfluorescein-labelled RGD-10 to HUVEC. More on the design: species or system human. The following applies: synthetic carboxyfluorescein-labeled RGD-10 peptide, Fig. 1. The procedure:
Fig. 1: Binding of carboxyfluorescein-labelled RGD-10 to HUVECs. Thin line - cells without peptide, bold line - cells incubated with CF-labelled RGD-10. Fig. 2: Titration of inhibition of RGD-10 binding by peptides RGD-10 or RGD-4C analyzed by cell ELISA. Fig. 3: Structure of lipopeptides consisting of a peptide ligand with an acetylated Nterminus, the doo spacer linked to a dipalmitoyl-glycero-succinyl-lysine anchor. Fig. 4: A) Binding of RGD10 liposomes to HUVEC or B16.F10. Liposomes containing the RGD10-LP or RGD10-LP3 lipopeptide at a conc. of 0.1 mol% (thin line), 1 mol% (normal line), or 5 mol% (bold line) were analyzed for binding to HUVECs or B16.F10 (marked with 0). Binding of liposomes lacking lipopeptides is indicated as dotted line. B.) Liposomes containing the RGD10LP3 lipopeptide at a conc. of 1 mol% were analyzed for binding to MeWo or A431 cells. Dotted line = cells alone, normal line = liposomes without lipopeptide, bold line, RGD10-LP3 liposomes. Fig. 5: Competition experiments. […] Fluorescence microscopy analysis of binding of RGD10-LP3 liposomes or liposomes lacking lipopeptide (untargeted liposomes) to HUVECs at 4°C or 37°C. […] Fig. 8: Antitumor effects of LP3-liposomes (Dox-LP3 liposomes) loaded with doxorubicin in comparison to untargeted liposomes (Dox liposomes) or free doxorubicin analyzed in a C26 murine colon carcinoma tumor model. […]

Setting [4] is: RGD10-LP3 liposomes (1 mol% lipopeptide), 100 µM competitor, Fig. 5.
Where [5] appears, read: RGD10 LP1-containing liposomes (Example 3).

On to `C[C@H](N)C(=O)N[C@H]1CSSC[C@@H](C(=O)NCC(=O)O)NC(=O)[C@H](Cc2ccccc2)NC(=O)[C@@H]2CSSC[C@H](NC(=O)[C@H](CC(=O)O)NC1=O)C(=O)N[C@@H](CCCNC(=N)N)C(=O)NCC(=O)N[C@@H](CC(=O)O)C(=O)N2` [RGD-4C, reference compound] (H-ACDCRGDCFCG-OH; disulfide 2-10, 4-8; N-terminus and C-terminus assumed), for which the “inhibition of binding of liposomes to HUVEC” value in the assay with HUVEC [1] (setting [4]) and in the assay with HUVEC [1] (setting [5]) was “completely inhibited” in each case. Moreover, the “inhibition of binding of liposomes to B16.F10” value in the assay with B16.F10 is reported as “completely inhibited”.
One may read the pIC50 as the IC50 on a negative log10 scale, so that one unit is a factor of ten. A low value points to a large IC50. For `C[C@H](NC(=O)CN)C(=O)N[C@@H](CCCNC(=N)N)C(=O)N[C@@H](Cc1ccc(O)cc1)C(=O)N[C@H]1CSSC[C@@H](C(=O)N[C@@H](Cc2ccccc2)C(=O)N[C@@H](CC(=O)O)C(=O)NCC(=O)O)NC(=O)[C@H](CC(=O)O)NC(=O)CNC(=O)[C@H](CCCNC(=N)N)NC1=O` [RGD-10] (H-GARYCRGDCFDG-OH; disulfide 5-9; N-terminus and C-terminus assumed), in assay [2], the pIC50 is about 6.70. Also, the “inhibition of binding of liposomes to HUVEC” value in the assay with HUVEC [1] (setting [4]) and with HUVEC [1] (setting [5]) was “completely inhibited” in each case. For the same molecule, in the assay on HDMEC, the “binding strength to HDMEC” value is given as “comparable strength as RGD-4C”. In addition, the “inhibition of binding of liposomes to B16.F10” value with B16.F10 is “completely inhibited”. Further, in the assay with HUVEC [3], the “binding to HUVEC” value was “Direct binding”.
